Source: patent US20120214847A1, “2-[1-PHENYL-5-HYDROXY-4a-SUBSTITUTED-HEXAHYDROCYCLOPENTA[F]INDAZOL-5-YL]ETHYL PHENYL DERIVATIVES AS GLUCOCORTICOID RECEPTOR LIGANDS” (Merck Sharp & Dohme Corp., priority 2009, published 2012)

Target: T1, glucocorticoid receptor (Homo sapiens, UniProt P04150)
T1 construct: endogenous in cells; host or cells: HeLa (ATCC) cell lysate supernatant
T1 sequence (P04150 1-777): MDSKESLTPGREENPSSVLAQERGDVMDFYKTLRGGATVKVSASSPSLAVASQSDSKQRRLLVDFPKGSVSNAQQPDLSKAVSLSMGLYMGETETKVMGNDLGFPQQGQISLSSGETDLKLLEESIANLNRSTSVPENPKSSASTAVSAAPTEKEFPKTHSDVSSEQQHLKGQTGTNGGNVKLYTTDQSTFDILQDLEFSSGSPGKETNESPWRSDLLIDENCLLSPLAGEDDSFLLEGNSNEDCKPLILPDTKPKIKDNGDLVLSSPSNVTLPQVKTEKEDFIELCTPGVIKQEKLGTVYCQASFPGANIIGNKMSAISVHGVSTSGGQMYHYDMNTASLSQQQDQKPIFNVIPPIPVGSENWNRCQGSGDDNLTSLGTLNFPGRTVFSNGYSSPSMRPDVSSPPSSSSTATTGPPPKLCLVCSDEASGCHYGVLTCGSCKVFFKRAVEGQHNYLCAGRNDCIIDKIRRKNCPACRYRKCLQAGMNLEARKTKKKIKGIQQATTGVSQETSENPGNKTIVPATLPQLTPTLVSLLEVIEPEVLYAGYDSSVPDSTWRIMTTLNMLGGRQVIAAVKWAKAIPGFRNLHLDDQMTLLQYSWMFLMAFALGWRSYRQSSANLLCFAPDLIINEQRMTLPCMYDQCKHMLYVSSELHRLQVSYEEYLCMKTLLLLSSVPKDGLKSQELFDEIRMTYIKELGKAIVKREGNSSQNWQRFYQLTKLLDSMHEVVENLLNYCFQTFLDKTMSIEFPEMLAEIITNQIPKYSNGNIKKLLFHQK
Experiment: Ligand binding assay (GRBind), 3H-dexamethasone displacement in HeLa cell lysate
Conditions: 3H-DEX tracer
Method: Binding Buffer: TEGM (10 mM Tris-HCl, 1 mM EDTA, 10% glycerol, 1 mM betamecaptoethanol, 10 mM Sodium Molybdate, pH 7.2)
50% HAP Slurry: Calbiochem Hydroxylapatite, Fast Flow, in 10 mM Tris, pH 8.0 and 1 mM EDTA.
Wash Buffer: 40 mM Tris, pH7.5, 100 mM KCl, 1 mM EDTA and 1 mM EGTA. 95% EtOH Dexmethasone-methyl-3H, (DEXA*); (Amersham cat#TRK645) Dexamethasone(DEX) (Sigma, cat#01756):
Hydroxylapatite Fast Flow; Calbiochem Cat#391947
25 Molybdate=Molybdic Acid (Sigma, M1651)
5 Cells (Hall R. E., et al., European Journal of Cancer, 30A: 484-490 (1994)) HeLa (ATCC) cultured in RPMI 1640 (Gibed 11835-055) containing 20 mM Hepes, 4 mM L-glu, 10 ug/ml of human insulin (Sigma, 1-0259), 10% FBS and 20 uglml of Gentamicin (Gibco#15710072) are rinsed twice in PBS. Phenol red-free Trypsin-EDTA is diluted in the same PBS 1:10. The cell layers are rinsed with IX Trypsin, extra Trypsin is poured out, and the cell layers are incubated at 37° C. for 2 min. The flask is tapped and checked for signs of cell detachment. Once the cells begin to slide off the flask, the complete media is added. The cells are counted at this point, then diluted to the appropriate concentration and split into flasks or dishes for further culturing (Usually 1:3 to 1:6 dilution).
Preparation of HeLa Cell Lysate
When the cells are 70 to 85% confluent, they are detached as described above, and collected by centrifuging at 1000 g for 10 min at 4° C. The cell pellet is washed twice with TEGM (10 mM Tris-HCl, 1 mM EDTA, 10% glycerol, 1 mM beta-mercaptoethanol, 10 mM Sodium Molybdate, pH 7.2). After the final wash, the cells are resuspended in TEGM at a concentration of 10^7 cells/mL. The cell suspension is snap frozen in liquid nitrogen or ethanol/dry ice bath and transferred to −80° C. freezer on dry ice. Before setting up the binding assay, the frozen samples are left on ice-water to just thaw. Then the samples are centrifuged at 12,500 g to 20,000 g for 30 min at 4° C. The supernatant is used to set-up assay right away. If using 50 μL of supernatant, the test compound can be prepared in 50 μL of the TEGM buffer.
Procedure for Multiple Compound Screening
1×TEGM buffer is prepared, and the isotope-containing assay mixture is prepared in the following order: EtOH (2% final concentration in reaction), 3H-DEX (Amersham Biosciences) and 1×TEGM. [e.g. For 100 samples, 200 JlL (100×2) of EtOH+4.25 JlL of 1:10 ^3H-Dex stock+2300 μL (100×23) 1×TEGM]. The compound is serially diluted, e.g., if starting final conc. is 1 μM, and the compound is in 25 μL of solution, for duplicate samples, 75 μL of 4×1 μM solution is made and 3 μL of 100). 1M is added to 72 μL of buffer, and 1:5 serial dilution.
25 μL of ^3H-DEX (6 nM) trace and 25 μL, compound solution are first mixed together, followed by addition of 50 μL receptor solution. The reaction is gently mixed, spun briefly at about 200 rpm and incubated at 4° C. overnight. 100 μL of 50% HAP slurry is prepared and added to the incubated reaction which is then vortexed and incubated on ice for 5 to 10 min. The reaction mixture is vortexed twice more to resuspend HAP while incubating reaction. The samples in 96-well format are then washed in wash buffer using the FilterMate™ Universal Harvester plate washer (Packard). The washing process transfers HAP pellet containing ligand-bound expressed receptor to Unifilter-96 GFIB filter plate (Packard). The HAP pellet on the filter plate is incubated with […] of MICROSCINT (Packard) scintillant for 30 min before being counted on the TopCount microscintillation counter (Packard). IC50s are calculated using DEX as a reference.

CC[C@]12Cc3cnn(-c4ccc(F)cc4)c3C=C1CC[C@@]2(O)CCc1ccccc1C(O)C(N)=O (stereo partly drawn) [Example 26, 2-(2-{2-[(4aS,5R)-4a-Ethyl-1-(4-fluorophenyl)-5-hydroxy-1,4,4a,5,6,7-hexahydrocyclopenta[f]indazol-5-yl]ethyl}phenyl)-2-hydroxyacetamide]
Ki: 3.82 nM

CC[C@]12Cc3cnn(-c4cccc(F)c4)c3C=C1CC[C@@]2(O)CCc1ccccc1C(N)=O [Example 11, 2-{2-[(4aS,5R)-4a-Ethyl-1-(3-fluorophenyl)-5-hydroxy-1,4,4a,5,6,7-hexahydrocyclopenta[f]indazol-5-yl]ethyl}benzamide]
Ki: 3.22 nM

N#Cc1ccccc1CC[C@]1(O)CCC2=Cc3c(cnn3-c3cccnc3)C[C@@]21C1CC1 [Example 30, 2-{2-[(4aR,5R)-4a-Cyclopropyl-5-hydroxy-1-(pyridin-3-yl)-1,4,4a,5,6,7-hexahydrocyclopenta[f]indazol-5-yl]ethyl}benzonitrile]
Ki: 1.36 nM

CC[C@]12Cc3cnn(-c4ccccc4)c3C=C1CC[C@@]2(O)CC(O)c1ccccn1 (single isomer, unassigned) [Example 67b]
Ki: 5.46 nM

CC[C@]12Cc3cnn(-c4ccc(F)cc4)c3C=C1CC[C@@]2(O)CCc1nccc(OC)c1C(F)C(N)=O (stereo partly drawn) [Example 65, 2-(2-{2-[(4aS,5R)-4a-Ethyl-1-(4-fluorophenyl)-5-hydroxy-1,4,4a,5,6,7-hexahydrocyclopenta[f]indazol-5-yl]ethyl}-4-methoxypyridin-3-yl)-2-fluoroacetamide]
Ki: 9.2 nM

CC[C@]12Cc3cnn(-c4ccc(F)cc4)c3C=C1CC[C@@]2(O)CCc1ccccc1S(=O)(=O)CC [Example 51, (4aS,5R)-4a-Ethyl-5-{2-[2-(ethylsulfonyl)phenyl]ethyl}-1-(4-fluorophenyl)-1,4,4a,5,6,7-hexahydrocyclopenta[f]indazol-5-ol]
Ki: 2.45 nM

NC(=O)c1cc(F)cnc1CC[C@]1(O)CCC2=Cc3c(cnn3-c3ccc(F)cc3)C[C@@]21C1CC1 [Example 4, 2-{2-[(4aR,5R)-4a-Cyclopropyl-1-(4-fluorophenyl)-5-hydroxy-1,4,4a,5,6,7-hexahydrocyclopenta[f]indazol-5-yl]ethyl}-5-fluoropyridine-3-carboxamide]
Ki: 1.98 nM

CC[C@]12Cc3cnn(-c4ccccc4)c3C=C1CC[C@@]2(O)CCc1ccccc1C(N)=O [Example 20, 2-{2-[(4aS,5R)-4a-Ethyl-5-hydroxy-1-phenyl-1,4,4a,5,6,7-hexahydrocyclopenta[f]indazol-5-yl]ethyl}benzamide]
Ki: 2.49 nM

NC(=O)Cc1c(F)cccc1CC[C@]1(O)CCC2=Cc3c(cnn3-c3ccc(F)cc3)C[C@@]21C1CC1 [Example 61, 2-(2-{2-[(4aR,5R)-4a-Cyclopropyl-1-(4-fluorophenyl)-5-hydroxy-1,4,4a,5,6,7-hexahydrocyclopenta[f]indazol-5-yl]ethyl}-6-fluorophenyl)acetamide]
Ki: 2.08 nM

CC[C@]12Cc3cnn(-c4ccccc4)c3C=C1CC[C@@]2(O)CCc1cccc(F)c1C#N [Example 15, 2-{2-[(4aS,5R)-4a-Ethyl-5-hydroxy-1-phenyl-1,4,4a,5,6,7-hexahydrocyclopenta[f]indazol-5-yl]ethyl}-6-fluorobenzonitrile]
Ki: 1.28 nM

CC[C@]12Cc3cnn(-c4ccc(F)cc4)c3C=C1CC[C@@]2(O)CCc1ccccc1CCC(N)=O [Example 22, 3-(2-{2-[(4aS,5R)-4a-Ethyl-1-(4-fluorophenyl)-5-hydroxy-1,4,4a,5,6,7-hexahydrocyclopenta[f]indazol-5-yl]ethyl}phenyl)propanamide]
Ki: 1.48 nM

CC[C@]12Cc3cnn(-c4ccc(F)cc4)c3C=C1CC[C@@]2(O)CCc1cc(F)ccn1 [Example 18, (4aS,5R)-4a-Ethyl-1-(4-fluorophenyl)-5-[2-(4-fluoropyridin-2-yl)ethyl]-1,4,4a,5,6,7-hexahydrocyclopenta[f]indazol-5-ol]
Ki: 1.73 nM

CC[C@]12Cc3cnn(-c4ccc(F)cc4)c3C=C1CC[C@@]2(O)CC(O)c1ncccc1F (stereo partly drawn) [Example 77, (4aS,5R)-4a-Ethyl-1-(4-fluorophenyl)-5-[2-(3-fluoropyridin-2-yl)-2-hydroxyethyl]-1,4,4a,5,6,7-hexahydrocyclopenta[f]indazol-5-ol]
Ki: 4.39 nM

CC[C@]12Cc3cnn(-c4ccc(F)cc4)c3C=C1CC[C@@]2(O)CC(O)c1ccccn1 (stereo partly drawn) [Example 68, (4aS,5R)-4a-Ethyl-1-(4-fluorophenyl)-5-[2-hydroxy-2-(pyridin-2-yl)ethyl]-1,4,4a,5,6,7-hexahydrocyclopenta[f]indazol-5-ol]
Ki: 2.72 nM

CC[C@]12Cc3cnn(-c4ccc(F)cc4)c3C=C1CC[C@@]2(O)CCc1ccc(F)cc1C(N)=O [Example 8, 2-{2-[(4aS,5R)-4a-Ethyl-1-(4-fluorophenyl)-5-hydroxy-1,4,4a,5,6,7-hexahydrocyclopenta[f]indazol-5-yl]ethyl}-5-fluorobenzamide]
Ki: 1.27 nM

CC[C@]12Cc3cnn(-c4ccc(F)cc4)c3C=C1CC[C@@]2(O)CCc1ncccc1F [Example 17, (4aS,5R)-4a-Ethyl-1-(4-fluorophenyl)-5-[2-(3-fluoropyridin-2-yl)ethyl]-1,4,4a,5,6,7-hexahydrocyclopenta[f]indazol-5-ol]
Ki: 1.44 nM

CC[C@]12Cc3cnn(-c4ccc(F)cc4)c3C=C1CC[C@@]2(O)CC(O)c1ncccc1F (stereo partly drawn) [Example 76, (4aS,5R)-4a-Ethyl-1-(4-fluorophenyl)-5-[2-(3-fluoropyridin-2-yl)-2-hydroxyethyl]-1,4,4a,5,6,7-hexahydrocyclopenta[f]indazol-5-ol]
Ki: 20.8 nM

N#Cc1cccnc1CC[C@]1(O)CCC2=Cc3c(cnn3-c3ccc(F)cc3)C[C@@]21C1CC1 [Example 31, 2-{2-[(4aR,5R)-4a-Cyclopropyl-1-(4-fluorophenyl)-5-hydroxy-1,4,4a,5,6,7-hexahydrocyclopenta[f]indazol-5-yl]ethyl}pyridine-3-carbonitrile]
Ki: 1.58 nM

CC[C@]12Cc3cnn(-c4ccc(F)cc4)c3C=C1CC[C@@]2(O)CCc1ccccc1C(O)C(N)=O (stereo partly drawn) [Example 25, 2-(2-{2-[(4aS,5R)-4a-Ethyl-1-(4-fluorophenyl)-5-hydroxy-1,4,4a,5,6,7-hexahydrocyclopenta[f]indazol-5-yl]ethyl}phenyl)-2-hydroxyacetamide]
Ki: 3.23 nM
